Test results published in US11491155B2, “Salt of a pyrimido[6,1-A]isoquinolin-4-one compound” (VERONA PHARMA PLC, priority 2015, dated 2022).
Structures can show the parent of a compound that is named as a salt.

Key:
Type in all cases: physicochemical
[1] = Solubility of RPL554 and salts in pMDI propellant systems
Method in brief: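 Ten actuations from each pMDI, three replicates per formulation, were filtered through a 0.20 μm filter into a vial cooled in dry ice/acetone, with about 10 s shaking between shots. The filtrate was evaporated to dryness, the residue recovered in 1 mL recovery solution and quantified by HPLC. The percent solubilised was taken against the starting RPL554 mass in the canister, computed from theoretical molecular weights of free base and salts.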

[2] = Behaviour to humidity by Gravimetric Vapour Sorption (GVS); details: for Behaviour to humidity: GVS, 0-90% humidity, 25° C.; for water adsorbed: up to 90% humidity
Experimental: Gravimetric Vapour Sorption—Sorption isotherms were obtained using a Hiden Isochema moisture sorption analyser (model IGAsorp), controlled by IGAsorp Systems Software V6.50.48. The sample was maintained at a constant temperature (25° C.) by the instrument controls. The humidity was controlled by mixing streams of dry and wet nitrogen, with a total flow of 250 ml·min^−1. The instrument was verified for relative humidity content by measuring three calibrated Rotronic salt solutions (10-50-88%). The weight change of the sample was monitored as a function of humidity by a microbalance (accuracy+/−0.005 mg). A defined amount of sample was placed in a tared mesh stainless steel basket under ambient conditions. A full experimental cycle typically consisted of three scans (sorption, desorption and sorption) at a constant temperature (25° C.) and 10% RH intervals over a 0-90% range (60 minutes for each humidity level).
(§1) The nature of the hydration and a preliminary examination of salt robustness/polymorphism was assessed by thermal manipulation using ThermoGravimetric Analysis (TGA) and Gravimetric Vapor Soprtion (GVS).

[3] = Thermal manipulation (isothermal 105° C., thermal cycle; TGA/DSC/XRPD)
Experimental: Differential Scanning calorimetry (DSC)—DSC data were collected on a PerkinElmer Pyris 4000 DSC equipped with a 45 position sample holder. The instrument was verified for energy and temperature calibration using certified indium. A predefined amount of the sample, 0.5-3.0 mg, was placed in a pin holed aluminium pan and heated at 20° C.·min^−1 from 30 to 350° C., or varied as experimentation dictated. A purge of dry nitrogen at 60 ml·min^−1 was maintained over the sample. The instrument control, data acquisition and analysis were performed with Pyris Software v9.0.1.0203.
Thermo-Gravimetric Analysis (TGA)—TGA data were collected on a PerkinElmer Pyris 1 TGA equipped with a 20 position auto-sampler. The instrument was calibrated using a certified weight and certified Alumel and Perkalloy for temperature. A predefined amount of the sample, 1-5 mg, was loaded onto a pre-tared aluminium crucible and was heated at 20° C.·min^−1 from ambient temperature to 400° C. A nitrogen purge at 20 ml·min^−1 was maintained over the sample. The instrument control, data acquisition and analysis were performed with Pyris Software v9.0.1.0203.
as §1

[4] = Stability assessment of RPL554 and salts: lactose powder blends (70° C., seven days); details: after storage at both room and elevated (70° C.) temperatures, 7 days
Experimental: A validated HPLC method (Onyx-Scientific, Final product testing monograph for RPL554) for the determination of chemical purity by HPLC was used.
The following chromatography conditions were used: Column: Waters X Bridge phenyl, 3.5 μm, 150×4.6 mm, (Part number 186003335); Diluent: Acetonitrile:Water (50:50, v/v); Mobile Phase: A—Purified Water:Trifluoroacetic acid (100:0.1); B—Acetonitrile:Trifluoroacetic acid (100:0.1); Flow Rate: 1.0 mL/min; Injection Volume: 10 μl; Detection: UV @ 254 nm; Column Temperature: 30° C.; Post Run: 5 min; Gradient: [Time (min): % A:% B]: [0: 95:5], [2: 95:5]; [15: 5:95], [20: 5:95], [22: 95:5].
Samples of 1% w/w RPL554 free base or salt variants: lactose blends were prepared and stored at elevated temperature (70° C.) for seven days, control samples were stored at ambient conditions and protected from light on the laboratory bench. All samples (approximately 0.5 g) were accurately weighed into screw cap glass scintillation vials (20 mL). For storage at elevated temperature samples were placed in an oven at 70° C. protected from light. Control sample vials were capped, protected from light and stored on the bench for 7 days.
In addition, to the RPL554 and salt variant blends, samples of lactose alone were also stored at the elevated temperature condition (control samples at ambient). The lactose only samples served as baseline data for the HPLC analysis. […]

[5] = HFA 227: 10% Ethanol: 0.1% Tween
[6] = in HFA 134, listed as Ethane-1,2-disulfonate hemi-salt
[7] = in HFA 134 with Ethanol/Tween, listed as Ethane-1,2-disulfonate hemi-salt
[8] = listed as ethane-1,2-disulfonate salt
[9] = in HFA 134 with Ethanol/Tween, hydrochloride
[10] = listed as hydrochloride salt, hydrochloride

With COc1cc2c(cc1OC)-c1c/c(=N\c3c(C)cc(C)cc3C)n(CCNC(N)=O)c(=O)n1CC2 [Ethane-1,2-disulfonate, RPL554 ethane-1,2-disulfonate] the “Estimated Solubilised RPL554 μg per 50 μL actuation” value [1, 5] was 0.11 µg, the “Solubility RPL554” value [1, 5] was 1.69 µg/g and the “Estimated RPL554 solubilised (%)” value ([1]; HFA 227: 10% Ethanol: 0.1% Tween, listed as Ethane-1,2-disulfonate hemi-salt) was 0.07%. The “Solubility RPL554 (μg/g)” value ([1]; in HFA 134, BLQ = below limit of quantitation (0.06 μg/mL), listed as Ethane-1,2-disulfonate hemi-salt) was “BLQ”, the “Calculated RPL554 solubilised (%)” value [1, 6] was “BLQ” and the “Calculated Solubilised RPL554 μg per 50 μL actuation” value [1, 6] was “BLQ”. The “Solubility RPL554” value ([1]; in HFA 134 with Ethanol/Tween) was 5 µg/g, the “Estimated RPL554 solubilised (%)” value [1, 7] was 0.20% and the “Estimated Solubilised RPL554 μg per 50 μL actuation” value [1, 7] was 0.34 µg. For the same molecule, the “Solubility RPL554” value [1, 7] was 5.13 µg/g, the “Calculated RPL554 solubilised (%)” value ([1]; in HFA 227) was “BLQ” and the “Calculated Solubilised RPL554 μg per 50 μL actuation” value ([1]; in HFA 227) was “BLQ”. The “Solubility RPL554 (μg/g)” value ([1]; in HFA 227) was “BLQ”, the Behaviour to humidity [2, 8] was “reversible adsorption and desorption over the humidity range with no hysteresis” and the water uptake ([2]; to 50% humidity) was 4 mole equivalents. For the same molecule, the water adsorbed [2, 8] was “up to 5 mole equivalents”.
For COc1cc2c(cc1OC)-c1c/c(=N\c3c(C)cc(C)cc3C)n(CCNC(N)=O)c(=O)n1CC2 [Hydrochloride, RPL554 hydrochloride], the “Solubility RPL554 (μg/g)” value ([1]; in HFA 134, BLQ = below limit of quantitation (0.06 μg/mL), hydrochloride) was “BLQ”, the “Calculated RPL554 solubilised (%)” value ([1]; in HFA 134, hydrochloride) was “BLQ” and the “Calculated Solubilised RPL554 μg per 50 μL actuation” value ([1]; in HFA 134, hydrochloride) was “BLQ”. The “Estimated RPL554 solubilised (%)” value [1, 9] was 5.27%, the “Estimated Solubilised RPL554 μg per 50 μL actuation” value [1, 9] was 9.79 µg and the “Solubility RPL554” value [1, 9] was 149.17 µg/g. The “Calculated RPL554 solubilised (%)” value ([1]; in HFA 227) was “BLQ”, the “Calculated Solubilised RPL554 μg per 50 μL actuation” value ([1]; in HFA 227) was “BLQ” and the “Solubility RPL554 (μg/g)” value ([1]; in HFA 227) was “BLQ”. The “form change by thermal manipulation” value ([3]; below the melt endotherm) was “No form change was detected”, the Thermal cycle ([3]; hydrochloride) was “Stable form” and the Behaviour to humidity [2, 10] was “reversible adsorption and desorption over the humidity range with no hysteresis”. For the same molecule, the water adsorbed [2, 10] was “up to 2 mole equivalents”.
For COc1cc2c(cc1OC)-c1c/c(=N\c3c(C)cc(C)cc3C)n(CCNC(N)=O)c(=O)n1CC2 [Sulfate, RPL554 sulfate], the “Calculated RPL554 solubilised (%)” value ([1]; in HFA 134) was “BLQ”, the “Calculated Solubilised RPL554 μg per 50 μL actuation” value ([1]; in HFA 134) was “BLQ” and the “Solubility RPL554 (μg/g)” value ([1]; in HFA 134, BLQ = below limit of quantitation (0.06 μg/mL)) was “BLQ”. The “Estimated RPL554 solubilised (%)” value ([1]; in HFA 134 with Ethanol/Tween) was 2.84%, the “Estimated Solubilised RPL554 μg per 50 μL actuation” value ([1]; in HFA 134 with Ethanol/Tween) was 4.71 µg and the “Solubility RPL554” value ([1]; in HFA 134 with Ethanol/Tween) was 73.19 µg/g. For the same molecule, the “Calculated RPL554 solubilised (%)” value ([1]; in HFA 227) was “BLQ”, the “Calculated Solubilised RPL554 μg per 50 μL actuation” value ([1]; in HFA 227) was “BLQ” and the “Solubility RPL554 (μg/g)” value ([1]; in HFA 227) was “BLQ”. For the same molecule, the “peak area of the RPL554, % of the total areas” value [4] was 82%.
